From the NIST ThermoML archive (doi:10.1021/acs.jced.5b00892)

Conditions: Liquid, Gas chromatography

CCOC(=O)/C=C(C)/C=C/C[C@@H](C)CCCC(C)C [ethyl (S,2E,4E)-3,7,11-trimethyldodeca-2,4-dienoate]
Conditions | vapor or sublimation pressure [kPa]
298.15 K | 1.4e-05
310 K | 5.7e-05
320 K | 0.00017
330 K | 0.00047
340 K | 0.0012
350 K | 0.0029
360 K | 0.0065
370 K | 0.014
380 K | 0.028
390 K | 0.054
400 K | 0.1
410 K | 0.18
420 K | 0.3
430 K | 0.5
440 K | 0.81
450 K | 1.3
460 K | 1.9
470 K | 2.8
480 K | 4.1
490 K | 5.8
500 K | 8

CC/C=C/C=C/CCCCCCCCOC(C)=O [(9E,11E)-tetradeca-9,11-dienyl acetate]
Conditions | vapor or sublimation pressure [kPa]
298.15 K | 1.5e-05
310 K | 6.3e-05
320 K | 0.00019
330 K | 0.00051
340 K | 0.0013
350 K | 0.0031
360 K | 0.007
370 K | 0.015
380 K | 0.03
390 K | 0.058
400 K | 0.11
410 K | 0.19
420 K | 0.33
430 K | 0.54
440 K | 0.87
450 K | 1.4
460 K | 2.1
470 K | 3
480 K | 4.4
490 K | 6.2
500 K | 8.6

CC/C=C/CCCCCCCCCCOC(C)=O [(E)-tetradec-11-enyl acetate]
Conditions | vapor or sublimation pressure [kPa]
298.15 K | 2.8e-05
310 K | 0.00011
320 K | 0.00032
330 K | 0.00086
340 K | 0.0021
350 K | 0.0049
360 K | 0.011
370 K | 0.022
380 K | 0.044
390 K | 0.084
400 K | 0.15
410 K | 0.27
420 K | 0.45
430 K | 0.73
440 K | 1.2
450 K | 1.8
460 K | 2.7
470 K | 3.9
480 K | 5.6
490 K | 7.8
500 K | 11

C#CCOC(=O)/C=C(C)/C=C/CC(C)CCCC(C)C (configuration not stated) [prop-2-ynyl (2E,4E)-3,7,11-trimethyldodeca-2,4-dienoate]
Conditions | vapor or sublimation pressure [kPa]
298.15 K | 4.2e-06
310 K | 1.9e-05
320 K | 6.1e-05
330 K | 0.00018
340 K | 0.00049
350 K | 0.0012
360 K | 0.0029
370 K | 0.0065
380 K | 0.014
390 K | 0.028
400 K | 0.053
410 K | 0.098
420 K | 0.17
430 K | 0.29
440 K | 0.49
450 K | 0.78
460 K | 1.2
470 K | 1.8
480 K | 2.7
490 K | 3.9
500 K | 5.5

CCC/C=C\CCCCCCCOC(C)=O [(Z)-dodec-8-enyl acetate]
Conditions | vapor or sublimation pressure [kPa]
298 K | 0.00027
310 K | 0.00091
320 K | 0.0023
330 K | 0.0056
340 K | 0.013
350 K | 0.027
360 K | 0.053
370 K | 0.1
380 K | 0.19
390 K | 0.33
400 K | 0.56
410 K | 0.93
420 K | 1.5
430 K | 2.3
440 K | 3.5
450 K | 5.1
460 K | 7.3
470 K | 10
480 K | 14.1
490 K | 19
500 K | 25

CCCC/C=C\CCCCCCCCCCCCOC(C)=O [(Z)-octadec-13-en-1-yl acetate]
Conditions | vapor or sublimation pressure [kPa]
298.15 K | 4.1e-07
310 K | 2.2e-06
320 K | 8.2e-06
330 K | 2.7e-05
340 K | 8.3e-05
350 K | 0.00023
360 K | 0.00061
370 K | 0.0015
380 K | 0.0034
390 K | 0.0074
400 K | 0.015
410 K | 0.03
420 K | 0.056
430 K | 0.1
440 K | 0.18
450 K | 0.3
460 K | 0.48
470 K | 0.76
480 K | 1.2
490 K | 1.7
500 K | 2.5

CCCCCCCC/C=C\CCCOC(C)=O [(Z)-tridec-4-enyl acetate]
Conditions | vapor or sublimation pressure [kPa]
298 K | 0.00012
310 K | 0.00042
320 K | 0.0011
330 K | 0.0028
340 K | 0.0065
350 K | 0.0142
360 K | 0.029
370 K | 0.058
380 K | 0.11
390 K | 0.2
400 K | 0.34
410 K | 0.57
420 K | 0.92
430 K | 1.5
440 K | 2.2
450 K | 3.3
460 K | 4.8
470 K | 6.9
480 K | 9.6
490 K | 13
500 K | 18
